Source: publication PMC8365601, “Terphenyl-Based Small-Molecule Inhibitors of Programmed Cell Death-1/Programmed Death-Ligand 1 Protein–Protein Interaction” (Journal of Medicinal Chemistry, 2021)
Where two headings read alike, the source gives them in different places.

What was measured:
[1] = molecular target: T1, human PD-L1 (Homo sapiens, UniProt Q9NZQ7); test: 1H NMR titration with human PD-L1; format: binding; details: molar ratio 1:1
T1 construct: pET-21b plasmid carrying the PD-L1 gene (amino acids 18–134); made in house; host or cells: Escherichia coli BL21
Procedure: NMR spectra were recorded in PBS pH 7.4 containing 10% (v/v) of D2O added to the samples to provide the lock signal. Water suppression was carried out using the WATERGATE sequence. All the spectra were recorded at 300 K using a Bruker AVANCE 600 MHz spectrometer with the cryo-platform. The spectra were recorded at the ligand/protein ratio of 1:1, unless stated otherwise. The samples were prepared by adding small amounts of a 50 mM ligand stock solution in DMSO to the protein solution (0.20 mL) of PD-L1 fragment at a concentration of 0.2 mM. Spectra were visualized using TopSpin 4.0.2.

[2] = molecular target: PD-1/PD-L1 complex (Homo sapiens, UniProt Q9NZQ7); test: HTRF assay of PD-1/PD-L1 complex dissociation (CisBio); details: for IC50: HTRF; for remaining activity at 0.005 µM: 2 h;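 as to all read-outs here: human PD-L1 at 5 nM with human PD-1 at 50 nM, TR-FRET signal read after 2 h at room temperature, background removed via negative control and scaled to positive control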
Procedure: HTRF was performed using the certified CisBio assay according to the manufacturer’s guidelines. The experiments were performed at 5 nM h-PD-L1 and 50 nM hPD-1 in the final formulation at 20 μL final volume in the well. To determine the half-maximal inhibitory concentration (IC50) of tested compounds, measurements were performed on two individual dilution series, unless states otherwise. After mixing all components according to the CisBio protocol, the plate was left for 2 h incubation at room temperature, followed by time-resolved fluorescence energy transfer (TR-FRET) measurement on Tecan Spark 20M. Collected data were background-subtracted on the negative control, normalized on the positive control, averaged, and fitted with normalized Hill’s equation to determine the IC50 value using Mathematica 12.

[3] = Cytotoxicity assay toward Jurkat-ECs; format: cell-based; details: human, Jurkat-EC cells, SI csv
Procedure: The cytotoxicity of compounds was verified toward Jurkat-ECs since these cells provide the readout in the ICB assay and present a much higher degree of susceptibility to the compounds’ toxicity than CHO-K1 cells (not shown). Jurkat-ECs were seeded on 96-well transparent plates in the presence of increasing concentrations of the compounds with DMSO-treated cells as a control. The concentration of DMSO was kept constant (0.1%). After 48 h of incubation, a tetrazolium reagent, Biolog redox dye MIX MB (Biolog), was added according to the manufacturer’s protocol, and the culture plates were incubated for an additional 2 h (37 °C, 5% CO2). The absorbance was measured using a Spark microplate reader (Tecan) at 590 nm with 750 nm as a reference. The data are presented as Jurkat-EC survival relative to DMSO-treated control cells. Data points represent mean ± SD values from three independent experiments. Half-maximal effective concentrations (EC50 values) were calculated from the dose–response curve using OriginPro 2020 (OriginLab) software.

[4] = molecular target: T2, PD-1/PD-L1 interaction (Homo sapiens, UniProt Q9NZQ7); test: PD-1/PD-L1 ICB assay (Jurkat-ECs with CHO/TCRAct/PD-L1 cells, luciferase); format: cell-based; details: for EC50: Jurkat-ECs with CHO/TCRAct/PD-L1, 6 h, SI csv, read-out: Bioactivity (EC50 in the ICB assay)
T2 construct: host or cells: CHO-K1 (CHO/TCRAct/PD-L1) and Jurkat effector cells
Procedure: After a successful optimization of the terphenyl compounds, the activity of the optimized molecules 7a and 8a–j in a cellular context was assessed. To this end, we first performed the PD-1/PD-L1 ICB assay. In this assay, T-cell receptor (TCR)-mediated activation of Jurkat effector cells (Jurkat-ECs) is reduced by the presence of PD-L1, exposed at the surface of CHO/TCRAct/PD-L1 cells (Figure 3A).
(§1) The functional assay of the blockade of PD-1/PD-L1 interaction in vitro (PD-1/PD-L1 Blockade Bioassay, Promega) was performed according to the manufacturer’s protocol. CHO/TCRAct/PD-L1 cells or CHO/TCRAct or CHO-K1 cells were seeded on 96-well white plates at the density of 10,000 cells/well and the next day overlaid with Jurkat T cells (20,000 cells/well) in the presence of increasing concentrations of the compounds with DMSO only as a control (the concentration of DMSO was kept constant at 0.1%) or atezolizumab, as a positive control, anti-PD-L1 monoclonal antibody (Selleckchem). The 2.5-fold dilutions of atezolizumab were prepared in the assay buffer (RPMI 1640 + 1% FBS) on the day of the assay. Activation of the Jurkat T cells, reflected by luciferase activity, was monitored by luminescence measurements after 6 h of incubation (37 °C, 5% CO2), and 20 min of additional incubation with the Bio-Glo assay reagent (Promega) at room temperature. The luminescence was read on a Spark microplate reader (Tecan). The data are presented as fold induction of the luminescence signal relative to either untreated (for atezolizumab) or DMSO-treated (for compound) cells. Data points represent mean ± SD values from three to five independent experiments. Half-maximal effective concentrations (EC50 values) were calculated from the Hill curve fitting to the experimental data using Origin Pro 2020 software (OriginLab).

[5] = system: Jurkat-ECs alone or with CHO wt or CHO/TCRAct cells; test: ICB assay control where PD-L1 is absent; format: cell-based; details: 6 h; Figure S1
Procedure: as §1, with “(OriginLab). […]” for “(OriginLab).”
of the Immune Checkpoint Blockade (ICB) assay, where 8h, 8i, and 8j were used to restore the activation of effector Jurkat-ECs. Jurkat-ECs were either kept alone, or contacted with one of the following cell lines: wild type CHO K1 cells (CHO wt), CHO K1 cells expressing TCR Activator (CHO/TCRAct), or CHO K1 cells expressing TCR Activator and […]. The cells were incubated with the indicated concentrations of the compounds for 6 hours and luminescence was measured as an indicator of TCR-dependent activation of Jurkat-ECs. The graphs present fold induction of the luminescence signal relative to DMSO-treated cells. […]

[6] = system: primary CD4+ and CD8+ T cells (PBMCs); test: T-cell activation (TCA) assay, PBMCs with CHO/TCRAct/PD-L1 cells, flow cytometry; format: cell-based, human; details: 48 h; compounds 0.1, 0.5, 2.5 μM; mAbs 5 μg/mL
Procedure: A standard ICB assay relies on artificial Jurkat-ECs, which are surrogates of T-cells. To verify the potential of the compounds to reactivate the PD-L1-blocked primary T cells, a modified assay termed T-cell activation (TCA) was carried out.[32] In this assay, human primary peripheral blood mononuclear cells (PBMCs) are allowed to make contact with CHO/TCRAct/PD-L1 cells alone or in the presence of PD-1/PD-L1 blockers, and the activation of CD4^+ and CD8^+ T cell is monitored by flow cytometry.
Anticoagulant citrate dextrose-A-treated blood from healthy donors was purchased from the Regional Center of Blood Donation and Blood Therapy in Krakow, Poland. PBMCs were isolated from whole blood by density gradient centrifugation using Pancoll human separating solution (PAN-Biotech GmbH, Aidenbach, Germany). The separated cells were washed and resuspended in RPMI 1640 medium (Biowest) containing 10% FBS (Biowest). PBMCs were added at an amount of 3 × 10^5 to CHO, CHO/TCRAct, or CHO/TCRAct/PD-L1 cells preseeded on 24-well plates in the presence of either anti-PD-L1 mAbs (at the final concentration 5 μg/mL): durvalumab (Selleckchem), atezolizumab (Selleckchem), or avelumab (MedChemExpress) or tested compounds at the concentrations 0.1, 0.5, and 2.5 μM. Untreated cells were used as controls for antibody treatment, while DMSO-treated cells [0.1% (v/v)] were used as controls for compound treatment. The cells were incubated for 48 h (37 °C, 5% CO2) and then detached from the plates with TrypLe Select Enzyme (Thermo Fisher). PBMCs were stained for 20 min at room temperature with the antibodies: anti-CD4-FITC, anti-CD8-BV510, anti-CD69-APC, anti-CD25-PE, anti-HLA-DR-PerCP, and anti-PD1-PECy7 (Becton Dickinson Biosciences, BD). Following two washing steps, the cells were analyzed with a FACSCanto II cytometer. Data analysis was carried out with FlowJo software, followed by statistical significance calculations done with Origin Pro 2020 software (OriginLab). Statistical significance was analyzed with one-way analysis of variance (ANOVA), followed by the Fisher’s posthoc test: *p < 0.05, **p < 0.01, […].

[7] = read-out: % of undissociated complex at 5 nM
[8] = read-out: HTRF % of the undissociated complex at 5 nM
[9] = Table 4, <1.00 = limit of quantification reached

T1 sequence (Q9NZQ7 18-134): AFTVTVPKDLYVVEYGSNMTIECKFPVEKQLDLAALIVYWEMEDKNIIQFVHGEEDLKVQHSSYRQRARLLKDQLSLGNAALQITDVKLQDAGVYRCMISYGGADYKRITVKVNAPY
Sequence of PD-1/PD-L1 complex (Q9NZQ7 19-238 limits assumed, one chain of several): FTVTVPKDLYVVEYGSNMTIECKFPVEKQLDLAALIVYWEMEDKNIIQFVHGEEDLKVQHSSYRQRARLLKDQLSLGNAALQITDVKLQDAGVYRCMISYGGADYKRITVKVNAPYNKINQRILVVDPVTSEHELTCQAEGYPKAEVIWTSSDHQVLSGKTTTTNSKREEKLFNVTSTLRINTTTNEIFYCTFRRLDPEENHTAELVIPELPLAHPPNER
T2 sequence (Q9NZQ7 19-290): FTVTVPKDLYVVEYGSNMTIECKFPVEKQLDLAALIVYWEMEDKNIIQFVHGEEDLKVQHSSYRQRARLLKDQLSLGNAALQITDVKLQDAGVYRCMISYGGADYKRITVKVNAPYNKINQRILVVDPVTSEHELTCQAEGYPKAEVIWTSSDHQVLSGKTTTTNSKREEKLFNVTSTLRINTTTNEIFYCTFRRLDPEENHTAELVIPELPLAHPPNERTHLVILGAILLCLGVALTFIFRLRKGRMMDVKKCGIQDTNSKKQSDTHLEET

In the case of Cc1c(-c2ccc(CO)cc2)cccc1-c1ccc2c(c1)OCCO2 [4a, (3′-(Benzo-1,4-dioxan-6-yl)-2′-methyl-[1,1′-biphenyl]-4-yl)methanol], the “change of hPD-L1 1H NMR spectrum on adding compound” value (shortened to “change of hPD-L1 1H NMR spectrum”) [1] is reported as “broadening of the hPD-L1 proton signals” and the IC50 ([2]; Table 1) is reported as 5.52 ± 0.04 µM.
For COc1cc(-c2cccc(-c3ccc4c(c3)OCCO4)c2Cl)ccc1CNCCNC(C)=O [7a, N-(2-(((3′-(Benzo-1,4-dioxan-6-yl)-2′-chloro-3-methoxy-[1,1′-biphenyl]-4-yl)methyl)amino)ethyl)acetamide], the EC50 at 48 h [3] was 3.19 ± 0.41 µM, the “change of hPD-L1 1H NMR spectrum” value [1] was “broadening of the hPD-L1 proton signals” and the EC50 [4] was 2.82 ± 0.4 µM. The complex dissociation ([2]; 5 nM ligand) was “complete complex dissociation”, the remaining activity at 0.005 µM [2, 7] was 0% and the remaining activity at 0.005 µM [2, 8] was 0%. The IC50 ([2]; Table 3) was 0.00082 ± 2e-05 µM.
With CC(=O)NCCNCc1ccc(-c2cccc(-c3ccc4c(c3)OCCO4)c2Cl)cc1OCC#N [7e, N-(2-(((3′-(Benzo-1,4-dioxan-6-yl)-2′-chloro-3-(cyanomethoxy)-[1,1′-biphenyl]-4-yl)methyl)amino)ethyl)acetamide] the “change of hPD-L1 1H NMR spectrum” value [1] was “broadening of the hPD-L1 proton signals”, the complex dissociation ([2]; 5 nM ligand) was 99% and the remaining activity at 0.005 µM [2, 7] was 1%. It also gave a remaining activity at 0.005 µM [2, 8] of 1%.
With COc1cc(-c2cccc(-c3ccc4c(c3)OCCO4)c2Cl)ccc1CN1CCN(C(=O)CN)CC1 [8d, 2-Amino-1-(4-((3′-(benzo-1,4-dioxan-6-yl)-2′-chloro-3-methoxy-[1,1′-biphenyl]-4-yl)methyl)piperazin-1-yl)ethan-1-one] the “% of the undissociated (remaining) complex” value ([2]; 5 nM ligand) was 5%, the remaining activity at 0.005 µM [2, 7] was 5% and the remaining activity at 0.005 µM [2, 8] was 5%. The IC50 [2, 9] was < 0.001 µM.
In the case of COc1cc(-c2cccc(-c3ccc4c(c3)OCCO4)c2Cl)ccc1CN1CCN(S(C)(=O)=O)CC1 [8e, 1-((3′-(Benzo-1,4-dioxan-6-yl)-2′-chloro-3-methoxy-[1,1′-biphenyl]-4-yl)methyl)-4-(methylsulfonyl)piperazine], the remaining activity at 0.005 µM [2, 7] is reported as 88%, the remaining activity at 0.005 µM [2, 8] is reported as 88% and the IC50 [2, 9] is reported as 0.104 ± 0.00217 µM.
COc1cc(-c2cccc(-c3ccc4c(c3)OCCO4)c2Cl)ccc1CNCCNC(=O)CN [8f, 2-Amino-N-(2-(((3′-(benzo-1,4-dioxan-6-yl)-2′-chloro-3-methoxy-[1,1′-biphenyl]-4-yl)methyl)amino)ethyl)acetamide] gave an EC50 at 48 h [3] of 3.1 ± 0.22 µM, an EC50 [4] of 3.28 ± 0.6 µM and a remaining activity at 0.005 µM [2, 7] of 8%. The remaining activity at 0.005 µM [2, 8] was 8% and the IC50 [2, 9] was < 0.001 µM.
For COc1cc(-c2cccc(-c3ccc4c(c3)OCCO4)c2Cl)ccc1CNCCNS(C)(=O)=O [8g, N-(2-(((3′-(Benzo-1,4-dioxan-6-yl)-2′-chloro-3-methoxy-[1,1′-biphenyl]-4-yl)methyl)amino)ethyl)methanesulfonamide], the EC50 at 48 h [3] was 4.47 ± 0.58 µM, the EC50 [4] was 11.1 ± 4.35 µM and the remaining activity at 0.005 µM [2, 7] was 32%. For the same molecule, the remaining activity at 0.005 µM [2, 8] was 32% and the IC50 [2, 9] was 0.00207 ± 4e-05 µM.
For COc1cc(-c2cccc(-c3ccc4c(c3)OCCO4)c2Cl)ccc1CNC(CO)CO [8i, 2-(((3′-(Benzo-1,4-dioxan-6-yl)-2′-chloro-3-methoxy-[1,1′-biphenyl]-4-yl)methyl)amino)propane-1,3-diol], the EC50 at 48 h [3] was 4.63 ± 0.35 µM, the “activation of Jurkat-ECs where PD-L1 is absent” value [5] was “requires the presence of PD-L1” and the “selectivity of PD-1/PD-L1-blocking activity versus cytotoxicity” value ([4]; EC50 (tox.) vs EC50 (bio.), Figure 3F) was “highest selectivity”. The EC50 [4] was 2.57 ± 0.45 µM, the remaining activity at 0.005 µM [2, 7] was 0% and the remaining activity at 0.005 µM [2, 8] was 0%. For the same molecule, the IC50 [2, 9] was < 0.001 µM.
For “avelumab: therapeutic anti-PD-L1 antibody”, the “numbers of PD-1-positive T cells” value [6] was “increases the expression of PD-1 on T-cells”.
For “durvalumab: therapeutic anti-PD-L1 antibody”, the “numbers of PD-1-positive T cells” value [6] was “increases the expression of PD-1 on T-cells”.
